Data published in patent publication US20220096449A1, “METHOD OF TREATMENT WITH TRADIPITANT” (Vanda Pharmaceuticals Inc., priority 2018, published 2022).

Key:
[1] = molecular target: NK-1 receptor (Meriones unguiculatus, UniProt Q5DUB1); experiment: NK-1 agonist (GR73632)-induced foot-tapping behavior in gerbils; type: in vivo; set-up: from tissue; host or cells: living gerbils (central NK-1 receptors); conditions: gerbil
Method: Male Mongolian gerbils (Harlan Sprague Dawley, Indianapolis, Ind.) weighing 26 to 40 grams are administered the selective neurokinin-1 receptor agonist GR73632 ([…]) via direct, vertical, free-hand intracerebroventricular (icv) injection to a depth of 4.5 mm below bregma with a cuffed 27-gauge needle attached to a 50 μl Hamilton syringe Immediately after injection, animals are placed individually into isolated chambers with pressure-sensitive velocimeter platform floors (San Diego Instruments acoustic startle apparatus) that detect and quantify vibration. The San Diego Instruments “SR” DOS-based computer program is used on a PC to record the number of foot-taps over the following 6 to 10 minutes, beginning 30 seconds after the floor is lightly tapped. Raw data are converted with a Microsoft® Excel® (Microsoft® and Excel® are registered trademarks of Microsoft Corp., Redmond, Wash.) macro that determines the number of events over threshold (125) in each 250-millisecond time bin over the 5.5 minutes following onset of observation. The total number and average intensity of events over the duration is determined. Total number of taps is analyzed with one-way ANOVA and post-hoc Dunnett's test using JMP statistical software.
A dose-response curve (with doses of 0.3, 1, 3 and 10 pmols, icv) is initially generated with the NK-1 agonist GR73632.
NK-1 antagonists are tested for their ability to attenuate GR73632-induced foot tapping. NK-1 antagonists are administered (po) via oral feeding tube at doses and time points specified in each experiment. All animals receive only one dose of NK-1 antagonists in all tests.
NK-1 antagonists are administered at multiple doses (at least 3; one dose per animal) and response to GR73632 is measured.
NK-1 receptor antagonists are administered at multiple pre-treatment times (one administration per animal) including at 0.5, 1, 2, 4, 7, 16, and 24 hours prior to GR73632 injection. GR73632 (Peninsula Labs, CA) is dissolved in saline. Tradipitant is dissolved in 1% CMC/0.5% SLS/0.085% PVP vehicle.

[2] = tested on: panel of 74 other receptors, enzymes, and ion channels; experiment: Binding panel of 74 other receptors, enzymes and ion channels; conditions: test concentration of 1 μM; any of 74 targets
[3] = tested on: patients with gastroparesis; experiment: Phase II gastroparesis study, open label extension (Example 4); type: in vivo, human
Description: In a phase II study of tradipitant in patients with gastroparesis, participants initially enter 4 week screening period prior to treatment with tradipitant, during which they answer a daily symptom questionnaire rating their nausea severity on a scale of 0 to 5, in which 0 represents no nausea, 1 represents very mild nausea, 2 represents mild nausea, 3 represents moderate nausea, 4 represents severe nausea, and 5 represents very severe nausea. After the 4 week screening period, patients enter the double blind randomized portion of the study, in which they receive either tradipitant 85 mg bid, or placebo. After 4 weeks of blinded study drug treatment, patients have the opportunity to enter an additional 8 week open label extension, during which each subject receives tradipitant 85 mg bid. 64 subjects participate in at least one week of the open label tradipitant dosing portion of the study. The average daily diarized nausea scores are reported for subjects during the 4 week screening period and during the up to 8 week open label extension.

[4] = molecular target: T1, NK-1 receptor (Cavia porcellus, UniProt P30547); experiment: GR73632-induced vocalization in guinea pigs; type: in vivo, guinea pig
T1 construct: from tissue; host or cells: living guinea pigs (central NK-1 receptors)
T1 sequence (P30547 whole entry): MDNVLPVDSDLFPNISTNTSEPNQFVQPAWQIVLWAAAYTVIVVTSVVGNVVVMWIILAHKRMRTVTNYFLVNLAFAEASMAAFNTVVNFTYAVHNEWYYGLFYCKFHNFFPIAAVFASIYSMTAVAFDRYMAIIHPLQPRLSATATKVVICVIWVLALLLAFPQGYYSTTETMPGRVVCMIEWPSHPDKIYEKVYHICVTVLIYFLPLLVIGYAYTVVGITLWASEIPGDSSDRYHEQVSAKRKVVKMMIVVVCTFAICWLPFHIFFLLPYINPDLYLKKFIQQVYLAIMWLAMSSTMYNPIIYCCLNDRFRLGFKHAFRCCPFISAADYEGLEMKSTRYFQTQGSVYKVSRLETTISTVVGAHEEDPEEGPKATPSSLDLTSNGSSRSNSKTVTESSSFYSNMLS
Method: Male Dunkin/Hartley guinea pigs (200 to 250 grams) are orally administered either vehicle or an NK-1 antagonist. Approximately 45 minutes later (for dose response studies), the animals are anesthetized and 0.1 nmol of GR73632 (SP analog) in a vehicle volume of 5 μl is injected into the cerebral ventricle at the intersection of bregma and the midline of the skull. Animals are placed in a dark testing chamber located inside of a sound attenuation cubicle and vocalizations are recorded for 30 minutes following recovery from anesthesia. The time spent vocalizing is quantified for each animal. In the duration of action study, 0.1 mg/kg of tradipitant or vehicle solution is administered orally and then 2, 4, or 7 hours later, 0.1 nmol of GR73632 is administered into the cerebral ventricle as described above. Vocalizations are recorded and quantified as indicated above. Vehicle solutions are either CMC (FIG. 4 data) or an ethanol/emulphor solution (FIGS. 5 and 6). Data is analyzed using one-tailed t-tests.

[5] = tested on: healthy subjects; experiment: Gamma scintigraphic gastrointestinal motility study in healthy subjects; type: in vivo, human; conditions: single oral dose 20 mg or 200 mg
Method: A single-center, randomized, double-blind, placebo-controlled study is conducted to investigate the effect of tradipitant on small bowel transit time. A total of 15 healthy subjects, 12 men and 3 women, between the ages of 19 and 63 years are enrolled in the study and receive at least 1 dose of study medication. A total of 13 subjects complete the study. Subjects are randomized to receive 20 mg of tradipitant, 200 mg of tradipitant, or placebo as a single oral dose within each of 3 periods, co-administered with a capsule radiolabeled with a maximum of 1MBq ^111In. Four hours post-dose, all subjects also receive a second capsule radiolabeled with a maximum of 4MBq ^99mTc. Each subject receives all 3 doses during the study. For all dosing regimens, in vivo gamma scintigraphic studies are performed at predetermined intervals, and the following scintigraphic parameters are analyzed: onset and completion of gastric emptying, onset and completion of colon arrival, initiation and completion of small bowel transit, and initial and complete disintegration of the capsule (anatomical location and time).

Sequence of NK-1 receptor (Meriones unguiculatus, UniProt Q5DUB1) (Q5DUB1 whole entry): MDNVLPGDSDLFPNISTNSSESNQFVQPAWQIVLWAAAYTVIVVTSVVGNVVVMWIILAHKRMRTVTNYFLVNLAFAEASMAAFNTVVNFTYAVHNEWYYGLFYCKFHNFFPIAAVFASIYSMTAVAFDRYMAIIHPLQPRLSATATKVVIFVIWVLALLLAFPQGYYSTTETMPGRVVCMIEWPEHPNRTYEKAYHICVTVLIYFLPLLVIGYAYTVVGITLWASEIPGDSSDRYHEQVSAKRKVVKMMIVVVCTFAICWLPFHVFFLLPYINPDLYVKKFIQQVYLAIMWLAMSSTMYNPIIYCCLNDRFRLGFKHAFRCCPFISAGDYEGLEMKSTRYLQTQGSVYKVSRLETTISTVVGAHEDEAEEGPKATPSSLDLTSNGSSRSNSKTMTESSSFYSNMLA

O=C(c1ccccc1Cl)c1cccnc1-c1nnn(Cc2cc(C(F)(F)F)cc(C(F)(F)F)c2)c1-c1ccncc1 [Tradipitant, {2-[1-(3,5-bistrifluoromethylbenzyl)-5-pyridin-4-yl-1H-[1,2,3]triazol-4-yl]-pyridin-3-yl}-(2-chlorophenyl)-methanone]
time after administration with significant inhibition of foot-tapping ([1]; 0.1 mg/kg po): up to 7 hours
effect on foot-tapping by 16 hours after administration ([1]; 0.1 mg/kg po, 16 hours): significantly diminished
inhibition at 1 mg/kg ([1]; 1 mg/kg, 16 hours after administration): > 50%
ED50 ([1]; oral, 2 hours after administration, GR73632 3 pmol icv, read-out: ED50, inhibition of foot-tapping behavior): 0.03 ± 0.004 mg/kg
inhibition of binding [2]: ≤ 50%
mean daily nausea score ([3]; 0 to 5 scale, open label 85 mg bid for 1 to 8 weeks, 64 patients): about 1.63
median daily nausea score ([3]; 0 to 5 scale, open label extension 85 mg bid, 64 subjects): 1.35
change of average percentage of nausea-free days compared to pre-treatment ([3]; 85 mg bid): doubled or greater
reduction of average daily nausea scores compared to pre-treatment ([3]; 85 mg bid): reduced by approximately one half
mean percentage of days nausea-free ([3]; open label extension 85 mg bid): 45.91%
median percentage of nausea-free days ([3]; open label extension 85 mg bid): 49.11%
suppression of agonist-induced vocalization ([4]; 0.1 mg/kg oral, 7 hours after administration): significantly active
inhibitory activity on vocalization ([4]; at and below 0.1 mg/kg): retains significant inhibitory activity
inhibition of agonist-induced vocalization ([4]; oral, 10, 1.0, 0.1 and 0.05 mg/kg (each p<0.001)): significant inhibition
duration of activity ([4]; oral, guinea pig): exceeds 7 hours
minimum effective dose (MED), inhibition of vocalization ([4]; oral, guinea pig): 0.025 mg/kg
effect on small bowel transit time [5]: statistically significant effect
effect on gastric emptying ([5]; study underpowered): No effect
